The text below walks through data of patent publication US20250361221A1, “SOLID STATE FORMS OF PALTUSOTINE AND PROCESS FOR PREPARATION THEREOF” (ASSIA CHEMICAL INDUSTRIES LTD., priority 2022, published 2025).

What all share (assay type): physicochemical
Data set [1] can be described thus: Storage stability at different relative humidities and temperatures, 6 months (XRPD). Conditions: for XRPD analysis results: 6 months. The procedure: (§1) X-ray diffraction was performed on X-Ray powder diffractometer: Bruker D8 Advance; CuKα radiation (λ=1.5418 Å); Lynx eye detector; laboratory temperature 22-25° C.; PMMA specimen holder ring with silicon low background. Prior to analysis, the samples were gently ground by means of mortar and pestle in order to obtain a fine powder. The ground sample was adjusted into a cavity of the sample holder and the surface of the sample was smoothed by means of a cover glass.
(§2) • Scan range: 2-40 degrees 2-theta; • Scan mode: continuous; • Step size: 0.05 degrees; • Time per step: 0.5 s; • Sample spin: 30 rpm; • Sample holder: PMMA specimen holder ring with silicon low background.
Samples of Paltusotine form PL1 was subjected to conditions of different relative humidities at different temperatures. XRPD analysis was performed on the samples after 6 months.

A short description of data set [2]: Grinding experiments: strong grinding and solvent drop grinding (XRPD). The following applies: 2 minutes. The procedure: as §1, §2
Samples of Paltusotine forms PL1 and PL11 were subjected to strong grinding, and to solvent drop grinding in water, ethanol and isopropanol. Grinding was carried out on the samples alone, or in the presence of ethanol or water. In these experiments, about 20 mg of the sample is placed in a mortar and ground with a pestle for 2 minutes. The solvent, when used, as added to the crystalline material before grinding, in a volume of 10 microlitres. XRPD analysis performed on each of the samples after the grinding experiment, confirmed no change in the starting material (Table 3): […]

Data set [3] is described as follows: Thermal stability: heating up to 100° C. for 30 minutes (XRPD). The following applies: Heating 100° C. As for the experimental part:
as §1, §2
Samples of Paltusotine forms PL1 and PL11 were subjected to heating up to 100° C. for 30 minutes. XRPD analysis of the sample confirmed no change in the starting material (Table 4): […]

Data set [4] in a line: Stability to compression: pressure of 2 tons in a hydraulic press (XRPD). Conditions: 2 tons/1 minute. The procedure: as §1, §2
Samples of Paltusotine forms PL1 and PL11 were subjected to a pressure of 2 tons in a hydraulic press (Atlas® Autopress hydraulic press, set to 2 tons). XRPD analysis was performed on the samples after 1 minute.

`N#Cc1cccc(-c2ccc3ncc(-c4cc(F)cc(F)c4)c(N4CCC(N)CC4)c3c2)c1O` [Form PL1, Paltusotine]: the XRPD analysis results is “No change” in data set [1] (25° C., 60% RH); “No change” in data set [1] (40° C., 75% RH); “No change” in data set [2] (Solvent-drop grinding (ethanol), 10 microlitres); “No change” in data set [2] (Solvent-drop grinding (isopropanol), 10 microlitres); “No change” in data set [2] (Solvent-drop grinding (water), 10 microlitres); “No change” in data set [2] (Strong grinding, mortar and pestle). For the same compound, in data set [1] (25° C./60% RH and 40° C./75% RH), the “time stable after exposure to high and low relative humidity at different temperatures” value is “at least 6 months”. The “Result (XRPD analysis)” value in data set [3] and in data set [4] was “Stable” throughout.
